This is an account of results in patent US6358981B1, “Sulphonamide derivatives” (Eli Lilly and Company, priority 1998, dated 2002).

Molecules are shown by their SMILES.

One data set deals with T1, human GluR4B receptor (Homo sapiens, UniProt P48058).
T1 construct: expressed in transfected cells
As to the kind of experiment: potentiation of agonist-induced excitability of human GluR4B receptor expressed in HEK 293 cells. The class given is cell-based. The source says:
The ability of compounds of formula I to potentiate glutamate receptor-mediated response may be determined using fluorescent calcium indicator dyes (Molecular Probes, Eugene, Oreg., Fluo-3) and by measuring glutamate-evoked efflux of calcium into GluR4 transfected HEK293 cells, as described in more detail below.
In one test, 96 well plates containing confluent monolayers of HEK cells stably expressing human GluR4B (obtained as described in European Patent Application Publication Number EP-A1-583917) are prepared. The tissue culture medium in the wells is then discarded, and the wells are each washed once with 200 μl of buffer (glucose, 10 mM, sodium chloride, 138 mM, magnesium chloride, 1 mM, potassium chloride, 5 mM, calcium chloride, 5 mM, N-[2-hydroxyethyl]-piperazine-N-[2-ethanesulfonic acid], 10 mM, to pH 7.1 to 7.3). […]
Each test is then performed as follows. […] A second fluorescent reading is taken after 5 minutes incubation. 15 μl of 400 μM glutamate solution is then added to each well (final glutamate concentration 100 μM), and a third reading is taken. The activities of test compounds and cyclothiazide solutions are determined by subtracting the second from the third reading (fluorescence due to addition of glutamate in the presence or absence of test compound or cyclothiazide) and are expressed relative to enhance fluorescence produced by 100 μM cyclothiazide.

T1 sequence (P48058 21-902): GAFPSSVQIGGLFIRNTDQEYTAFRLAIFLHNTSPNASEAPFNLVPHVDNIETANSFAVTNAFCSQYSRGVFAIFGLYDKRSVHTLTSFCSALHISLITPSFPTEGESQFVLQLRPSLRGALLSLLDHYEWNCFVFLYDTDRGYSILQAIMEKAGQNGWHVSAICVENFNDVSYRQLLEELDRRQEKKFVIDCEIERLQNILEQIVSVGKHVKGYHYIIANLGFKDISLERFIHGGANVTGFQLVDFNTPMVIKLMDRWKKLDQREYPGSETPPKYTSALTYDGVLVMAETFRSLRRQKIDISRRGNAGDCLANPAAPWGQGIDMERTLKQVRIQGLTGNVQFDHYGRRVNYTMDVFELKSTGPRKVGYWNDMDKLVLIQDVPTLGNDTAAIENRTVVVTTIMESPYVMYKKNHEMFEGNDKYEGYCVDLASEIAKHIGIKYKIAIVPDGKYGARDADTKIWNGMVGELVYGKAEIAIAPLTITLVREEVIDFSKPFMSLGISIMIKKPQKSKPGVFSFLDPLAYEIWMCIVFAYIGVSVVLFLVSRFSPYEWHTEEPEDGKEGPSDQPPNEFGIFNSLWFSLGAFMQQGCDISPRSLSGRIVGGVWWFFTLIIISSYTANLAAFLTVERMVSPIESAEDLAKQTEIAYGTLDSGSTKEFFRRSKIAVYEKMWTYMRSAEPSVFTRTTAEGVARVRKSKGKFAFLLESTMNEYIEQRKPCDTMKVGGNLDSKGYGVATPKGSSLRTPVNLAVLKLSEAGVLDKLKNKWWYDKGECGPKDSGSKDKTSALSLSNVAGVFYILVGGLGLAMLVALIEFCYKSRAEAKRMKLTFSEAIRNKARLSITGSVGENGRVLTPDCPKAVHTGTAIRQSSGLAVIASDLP

`CC(C)S(=O)(=O)NCC(F)c1ccc(-c2ccccc2)cc1` (centres unmarked) showed a melting point of 89 to 91 °C.
For `NS(=O)(=O)c1cc2c(cc1Cl)NC(C1CC3C=CC1C3)NS2(=O)=O` (centres unmarked) [cyclothiazide], the “potentiation of agonist-induced excitability” value at human GluR4B receptor was “potentiate agonist-induced excitability”.

The melting point is the temperature of the solid-liquid transition.
